According to patent publication US6358885B1, “Substituted phenylheterocyclic herbicides” (Mississippi State University, priority 1992, dated 2002):

Experiments:
Assay in all cases: Test B preemergence/postemergence greenhouse plant response rating 0 to 10
purple nutsedge = type: in vivo, Cyperus rotundus; details: for Plant response rating, Nutsedge: 0 to 10 scale
How it was run: (§1)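 Test chemicals, dissolved in a non-phytotoxic solvent, were applied to soil at planting and, at the same time, over foliage of seedlings at the one to four leaf stage.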

bedstraw = type: in vivo, Galium aparine; details: for Plant response rating, Bedstraw: 0 to 10 scale
How it was run: as §1

wheat = type: in vivo, Triticum aestivum; details: for Plant response rating, Wheat: 0 to 10 scale
How it was run: as §1

crabgrass = type: in vivo, Digitaria spp.; details: for Plant response rating, Crabgrass: 0 to 10 scale
How it was run: as §1

corn = type: in vivo, Zea mays; details: for Plant response rating, Corn: 0 to 10 scale
How it was run: as §1

barley = type: in vivo, Hordeum vulgare; details: for Plant response rating, Barley: 0 to 10 scale
How it was run: as §1

sugar beet = type: in vivo, Beta vulgaris; details: for Plant response rating, Sugar beet: 0 to 10 scale
How it was run: as §1

rape = type: in vivo, Brassica napus; details: for Plant response rating, Rape: 0 to 10 scale
How it was run: as §1

soybean = type: in vivo, Glycine max; details: for Plant response rating, Soybean: 0 to 10 scale
How it was run: as §1

wild oat = type: in vivo, Avena fatua; details: for Plant response rating, Wild oat: 0 to 10 scale
How it was run: as §1

chickweed = type: in vivo, Stellaria media; details: for Plant response rating, Chickweed: 0 to 10 scale
How it was run: as §1

cotton = type: in vivo, Gossypium hirsutum; details: for Plant response rating, Cotton: 0 to 10 scale
How it was run: as §1

cheatgrass = type: in vivo, Bromus secalinus; details: for Plant response rating, Cheatgrass: 0 to 10 scale
How it was run: as §1

lambsquarters = type: in vivo, Chenopodium album; details: for Plant response rating, Lambsquarter: 0 to 10 scale
How it was run: as §1

giant foxtail = type: in vivo, Setaria faberii; details: for Plant response rating, Giant foxtail: 0 to 10 scale
How it was run: as §1

blackgrass = type: in vivo, Alopecurus myosuroides; details: for Plant response rating, Blackgrass: 0 to 10 scale
How it was run: as §1

barnyardgrass = type: in vivo, Echinochloa crus-galli; details: for Plant response rating, Barnyardgrass: 0 to 10 scale
How it was run: as §1

morningglory = type: in vivo, Ipomoea hederacea; details: for Plant response rating, Morningglory: 0 to 10 scale
How it was run: as §1

sorghum = type: in vivo, Sorghum bicolor; details: for Plant response rating, Sorghum: 0 to 10 scale
How it was run: as §1

velvetleaf = type: in vivo, Abutilon theophrasti; details: for Plant response rating, Velvetleaf: 0 to 10 scale
How it was run: as §1

rice = type: in vivo, Oryza sativa; details: for Plant response rating, Rice: 0 to 10 scale
How it was run: as §1

wild buckwheat = type: in vivo, Polygonum convolvulus; details: for Plant response rating, Wild buckwheat: 0 to 10 scale
How it was run: as §1

cocklebur = type: in vivo, Xanthium pensylvanicum; details: for Plant response rating, Cocklebur: 0 to 10 scale
How it was run: as §1

Oc1cc(-c2nn3c(c2Br)CCCC3)c(F)cc1Cl [Compound 81]
Plant response rating, Nutsedge (purple nutsedge; PREEMERGENCE, Rate 50 g/ha): 0
Plant response rating (0 to 10 scale), Nutsedge (purple nutsedge; PREEMERGENCE, Rate 200 g/ha): 0
Plant response rating, Nutsedge (purple nutsedge; Rate 200 g/ha, POSTEMERGENCE): 3
Plant response rating, Bedstraw (bedstraw; POSTEMERGENCE, Rate 50 g/ha): 9
Plant response rating, Bedstraw (bedstraw; PREEMERGENCE, Rate 50 g/ha): 0
Plant response rating (0 to 10 scale), Bedstraw (bedstraw; PREEMERGENCE, Rate 200 g/ha): 9
Plant response rating, Bedstraw (bedstraw; Rate 200 g/ha, POSTEMERGENCE): 10
Plant response rating, Wheat (wheat; POSTEMERGENCE, Rate 50 g/ha): 3
Plant response rating, Wheat (wheat; PREEMERGENCE, Rate 50 g/ha): 0
Plant response rating (0 to 10 scale), Wheat (wheat; PREEMERGENCE, Rate 200 g/ha): 2
Plant response rating, Wheat (wheat; Rate 200 g/ha, POSTEMERGENCE): 4
Plant response rating, Crabgrass (crabgrass; POSTEMERGENCE, Rate 50 g/ha): 4
Plant response rating, Crabgrass (crabgrass; PREEMERGENCE, Rate 50 g/ha): 0
Plant response rating (0 to 10 scale), Crabgrass (crabgrass; PREEMERGENCE, Rate 200 g/ha): 0
Plant response rating, Crabgrass (crabgrass; Rate 200 g/ha, POSTEMERGENCE): 6
Plant response rating, Corn (corn; POSTEMERGENCE, Rate 50 g/ha): 2
Plant response rating, Corn (corn; PREEMERGENCE, Rate 50 g/ha): 0
Plant response rating (0 to 10 scale), Corn (corn; PREEMERGENCE, Rate 200 g/ha): 0
Plant response rating, Corn (corn; Rate 200 g/ha, POSTEMERGENCE): 3
Plant response rating, Barley (barley; POSTEMERGENCE, Rate 50 g/ha): 3
Plant response rating, Barley (barley; PREEMERGENCE, Rate 50 g/ha): 0
Plant response rating (0 to 10 scale), Barley (barley; PREEMERGENCE, Rate 200 g/ha): 0
Plant response rating, Barley (barley; Rate 200 g/ha, POSTEMERGENCE): 3
Plant response rating, Sugar beet (sugar beet; POSTEMERGENCE, Rate 50 g/ha): 10
Plant response rating, Sugar beet (sugar beet; PREEMERGENCE, Rate 50 g/ha): 0
Plant response rating (0 to 10 scale), Sugar beet (sugar beet; PREEMERGENCE, Rate 200 g/ha): 9
Plant response rating, Sugar beet (sugar beet; Rate 200 g/ha, POSTEMERGENCE): 10
Plant response rating, Rape (rape; POSTEMERGENCE, Rate 50 g/ha): 3
Plant response rating, Rape (rape; PREEMERGENCE, Rate 50 g/ha): 0
Plant response rating (0 to 10 scale), Rape (rape; PREEMERGENCE, Rate 200 g/ha): 7
Plant response rating, Rape (rape; Rate 200 g/ha, POSTEMERGENCE): 7
Plant response rating, Soybean (soybean; POSTEMERGENCE, Rate 50 g/ha): 6
Plant response rating, Soybean (soybean; PREEMERGENCE, Rate 50 g/ha): 0
Plant response rating (0 to 10 scale), Soybean (soybean; PREEMERGENCE, Rate 200 g/ha): 0
Plant response rating, Soybean (soybean; Rate 200 g/ha, POSTEMERGENCE): 7
Plant response rating, Wild oat (wild oat; POSTEMERGENCE, Rate 50 g/ha): 2
Plant response rating, Wild oat (wild oat; PREEMERGENCE, Rate 50 g/ha): 0
Plant response rating (0 to 10 scale), Wild oat (wild oat; PREEMERGENCE, Rate 200 g/ha): 3
Plant response rating, Wild oat (wild oat; Rate 200 g/ha, POSTEMERGENCE): 3
Plant response rating, Chickweed (chickweed; POSTEMERGENCE, Rate 50 g/ha): 2
Plant response rating, Chickweed (chickweed; PREEMERGENCE, Rate 50 g/ha): 0
Plant response rating (0 to 10 scale), Chickweed (chickweed; PREEMERGENCE, Rate 200 g/ha): 9
Plant response rating, Chickweed (chickweed; Rate 200 g/ha, POSTEMERGENCE): 3
Plant response rating, Cotton (cotton; POSTEMERGENCE, Rate 50 g/ha): 10
Plant response rating, Cotton (cotton; PREEMERGENCE, Rate 50 g/ha): 0
Plant response rating (0 to 10 scale), Cotton (cotton; PREEMERGENCE, Rate 200 g/ha): 0
Plant response rating, Cotton (cotton; Rate 200 g/ha, POSTEMERGENCE): 10
Plant response rating, Cheatgrass (cheatgrass; POSTEMERGENCE, Rate 50 g/ha): 3
Plant response rating, Cheatgrass (cheatgrass; PREEMERGENCE, Rate 50 g/ha): 0
Plant response rating (0 to 10 scale), Cheatgrass (cheatgrass; PREEMERGENCE, Rate 200 g/ha): 4
Plant response rating, Cheatgrass (cheatgrass; Rate 200 g/ha, POSTEMERGENCE): 4
Plant response rating, Lambsquarter (lambsquarters; POSTEMERGENCE, Rate 50 g/ha): 10
Plant response rating, Lambsquarter (lambsquarters; PREEMERGENCE, Rate 50 g/ha): 9
Plant response rating (0 to 10 scale), Lambsquarter (lambsquarters; PREEMERGENCE, Rate 200 g/ha): 10
Plant response rating, Lambsquarter (lambsquarters; Rate 200 g/ha, POSTEMERGENCE): 10
Plant response rating, Giant foxtail (giant foxtail; POSTEMERGENCE, Rate 50 g/ha): 4
Plant response rating, Giant foxtail (giant foxtail; PREEMERGENCE, Rate 50 g/ha): 0
Plant response rating (0 to 10 scale), Giant foxtail (giant foxtail; PREEMERGENCE, Rate 200 g/ha): 2
Plant response rating, Giant foxtail (giant foxtail; Rate 200 g/ha, POSTEMERGENCE): 8
Plant response rating, Blackgrass (blackgrass; POSTEMERGENCE, Rate 50 g/ha): 2
Plant response rating, Blackgrass (blackgrass; PREEMERGENCE, Rate 50 g/ha): 0
Plant response rating (0 to 10 scale), Blackgrass (blackgrass; PREEMERGENCE, Rate 200 g/ha): 3
Plant response rating, Blackgrass (blackgrass; Rate 200 g/ha, POSTEMERGENCE): 4
Plant response rating, Barnyardgrass (barnyardgrass; POSTEMERGENCE, Rate 50 g/ha): 8
Plant response rating, Barnyardgrass (barnyardgrass; PREEMERGENCE, Rate 50 g/ha): 0
Plant response rating (0 to 10 scale), Barnyardgrass (barnyardgrass; PREEMERGENCE, Rate 200 g/ha): 0
Plant response rating, Barnyardgrass (barnyardgrass; Rate 200 g/ha, POSTEMERGENCE): 7
Plant response rating, Morningglory (morningglory; POSTEMERGENCE, Rate 50 g/ha): 9
Plant response rating, Morningglory (morningglory; PREEMERGENCE, Rate 50 g/ha): 0
Plant response rating (0 to 10 scale), Morningglory (morningglory; PREEMERGENCE, Rate 200 g/ha): 0
Plant response rating, Morningglory (morningglory; Rate 200 g/ha, POSTEMERGENCE): 10
Plant response rating, Sorghum (sorghum; POSTEMERGENCE, Rate 50 g/ha): 3
Plant response rating, Sorghum (sorghum; PREEMERGENCE, Rate 50 g/ha): 0
Plant response rating (0 to 10 scale), Sorghum (sorghum; PREEMERGENCE, Rate 200 g/ha): 0
Plant response rating, Sorghum (sorghum; Rate 200 g/ha, POSTEMERGENCE): 3
Plant response rating, Velvetleaf (velvetleaf; POSTEMERGENCE, Rate 50 g/ha): 9
Plant response rating, Velvetleaf (velvetleaf; PREEMERGENCE, Rate 50 g/ha): 3
Plant response rating (0 to 10 scale), Velvetleaf (velvetleaf; PREEMERGENCE, Rate 200 g/ha): 10
Plant response rating, Velvetleaf (velvetleaf; Rate 200 g/ha, POSTEMERGENCE): 10
Plant response rating, Rice (rice; POSTEMERGENCE, Rate 50 g/ha): 6
Plant response rating, Rice (rice; PREEMERGENCE, Rate 50 g/ha): 0
Plant response rating (0 to 10 scale), Rice (rice; PREEMERGENCE, Rate 200 g/ha): 0
Plant response rating, Rice (rice; Rate 200 g/ha, POSTEMERGENCE): 6
Plant response rating, Wild buckwheat (wild buckwheat; POSTEMERGENCE, Rate 50 g/ha): 10
Plant response rating, Wild buckwheat (wild buckwheat; PREEMERGENCE, Rate 50 g/ha): 0
Plant response rating (0 to 10 scale), Wild buckwheat (wild buckwheat; PREEMERGENCE, Rate 200 g/ha): 10
Plant response rating, Wild buckwheat (wild buckwheat; Rate 200 g/ha, POSTEMERGENCE): 10
Plant response rating, Cocklebur (cocklebur; POSTEMERGENCE, Rate 50 g/ha): 8
Plant response rating, Cocklebur (cocklebur; PREEMERGENCE, Rate 50 g/ha): 0
Plant response rating (0 to 10 scale), Cocklebur (cocklebur; PREEMERGENCE, Rate 200 g/ha): 0
Plant response rating, Cocklebur (cocklebur; Rate 200 g/ha, POSTEMERGENCE): 10
